In US20250064789A1, “KETOAMIDE DERIVATIVES AND PHARMACEUTICAL USES THEREOF” (priority 2022, published 2025):

How the values were obtained:
[1] = target: recombinant SARS-CoV-2 M^pro (Severe acute respiratory syndrome coronavirus 2 (2019-nCoV) (SARS-CoV-2), UniProt P0DTD1); test: Inhibition of SARS-CoV-2 M^pro enzyme activity (fluorescent substrate assay); assay type: biochemical; conditions: inhibition of SARS-CoV-2 M^pro enzyme activity; values in nM; read-out: IC50
[2] = Cytotoxic assay against Vero E6 cells (MTT, 72 h); assay type: cell-based; conditions: African green monkey
Experimental: The cytotoxicity assessment of compounds was performed against Vero E6 cells. The specific experimental procedures: Vero E6 cells were seeded into a 96-well plate at a cell density of 2×10^4 cells/well, with 100 μL/well, and then incubated overnight at 37° C. in a 5% CO2 incubator. The next day, 100 μL of drug-containing medium was added to each well. The compound was diluted in a 2-fold serial dilution with a top concentration of […], for a total of 6 gradients. Three repeated wells were set for each concentration, and negative controls and blank controls without drugs were included for each experiment. […] All experimental data were analyzed using GraphPad Prism software.

[3] = male, Sprague-Dawley, rat, in vivo, iv, 1 mg/kg
in vivo = conditions: male, Sprague-Dawley, rat
[4] = Cytotoxic assay against human BEAS-2B cells (MTT, 72 h); assay type: cell-based; conditions: human
Experimental: (§1) BEAS-2B cells (normal human bronchial epithelial cells) and HUVEC cells (human umbilical vein endothelial cells) were used to evaluate the cytotoxicity of compounds against human-derived cells. The detailed experimental procedures: BEAS-2B cells or HUVEC cells were seeded into a 96-well plate at a cell density of 2×10^4 cells/well, that is, 100 µL/well, and then incubated overnight at 37° C. in a 5% CO2 incubator. The next day, 100 μL of drug-containing medium was added to each well. The compound was diluted in a 2-fold serial dilution with a top concentration of […], for a total of 6 gradients. Three repeated wells were set for each concentration, and negative controls and blank controls without drugs were included for each experiment. […] All experimental data were analyzed using GraphPad Prism software.

[5] = Cytotoxic assay against HUVEC cells (MTT, 72 h); assay type: cell-based, human; conditions: human
Experimental: as §1

[6] = Metabolic stability using human liver microsomes; assay type: in vitro ADME; conditions: pH 7.4, NADPH, 37° C., read-out: Human liver microsomes T1/2

Row | SMILES | IC50 [1] | CC50 at 72 h [2] | Vssobs [3] | AUC(0-inf) (in vivo; iv, 1 mg/kg) | AUC(0-t) (in vivo; iv, 1 mg/kg) | Cmax (in vivo; iv, 1 mg/kg) | MRT inf (in vivo; iv, 1 mg/kg) | Tmax (in vivo; iv, 1 mg/kg) | clearance (in vivo; iv, 1 mg/kg) | half-life (in vivo; iv, 1 mg/kg) | AUC(0-inf) (in vivo; po, 10 mg/kg) | AUC(0-t) (in vivo; po, 10 mg/kg) | Cmax (in vivo; po, 10 mg/kg) | MRT inf (in vivo; po, 10 mg/kg) | Tmax (in vivo; po, 10 mg/kg) | bioavailability (in vivo; po, 10 mg/kg) | half-life (in vivo; po, 10 mg/kg) | CC50 at 72 h [4] | CC50 at 72 h [5] | half-life at 1 µM [6]
1 | C[C@@H](NC(=O)[C@@H]1C[C@@H]2[C@H](C1)C2(F)F)C(=O)N[C@H](Cc1ccccc1)C(=O)C(=O)NCc1ccccn1 [Compound 126] | 11.1 ± 0.6 nM | > 500 µM | 16.6 ± 5.41 L/kg | 1070 ± 295 ng·h/mL | 1050 ± 285 ng·h/mL | 1860 ± 138 ng/mL | 1.06 ± 0.56 h | 0.08 h | 4.63 ± 3.62 mL/min/kg | 3.65 ± 3.48 h | 5270 ± 327 ng·h/mL | 5270 ± 325 ng·h/mL | 1559 ± 11.6 ng/mL | 4.02 ± 0.17 h | 0.5 h | 49.9 ± 3.08% | 2.46 ± 0.15 h | – | – | –
2 | CC(C)(C(=O)NCC1CCC(F)(F)CC1)C(=O)N[C@H](Cc1ccccc1)C(=O)C(=O)NCc1ccccn1 [Compound 324, (R)—N^1-((4,4-difluorocyclohexyl)methyl)-N^3-(3,4-dioxo-1-phenyl-4-((pyridin-2-ylmethyl)amino)butan-2-yl)-2,2-dimethylmalonamide] | 9.6 ± 0.1 nM | > 500 µM | – | – | – | – | – | – | – | – | – | – | – | – | – | – | – | – | – | –
3 | O=C(CC1CC(F)(F)C1)NCC(=O)N[C@H](Cc1ccccc1)C(=O)C(=O)NCc1cscn1 [Compound 423] | 13.2 ± 0.2 nM | > 500 µM | – | – | – | – | – | – | – | – | – | – | – | – | – | – | – | > 500 µM | > 500 µM | –
4 | C[C@@H](NC(=O)C1CCC(F)(F)C1)C(=O)N[C@H](Cc1ccccc1)C(=O)C(=O)NCc1cscn1 (some centres unmarked) [Compound 415] | 19.4 ± 2.2 nM | > 500 µM | – | – | – | – | – | – | – | – | – | – | – | – | – | – | – | > 500 µM | 468 µM | –
5 | O=C(NCc1nccs1)C(=O)[C@@H](Cc1ccccc1)NC(=O)[C@H]1CC(F)(F)CN1C(=O)C1CCC(F)(F)CC1 [Compound 402] | 19.9 ± 0.3 nM | 410 µM | – | – | – | – | – | – | – | – | – | – | – | – | – | – | – | > 500 µM | 327 µM | –
6 | O=C(CC1CC(F)(F)C1)NCC(=O)N[C@H](Cc1ccccc1)C(=O)C(=O)NCc1nccs1 [Compound 387] | 12.5 ± 1.2 nM | > 500 µM | – | – | – | – | – | – | – | – | – | – | – | – | – | – | – | > 500 µM | > 500 µM | –
7 | O=C(NCc1ccccn1)C(=O)[C@@H](Cc1ccccc1)NC(=O)[C@H]1COCCN1C(=O)CC1CCC(F)(F)CC1 [Compound 289] | 10.6 ± 0.1 nM | > 500 µM | – | – | – | – | – | – | – | – | 3250 ± 462 ng·h/mL | 3240 ± 460 ng·h/mL | 1040 ± 349 ng/mL | 2.98 ± 0.33 h | 0.5 h | – | 3.28 ± 0.19 h | – | – | –
8 | C[C@@H](NC(=O)N1CCC(F)(F)CC1)C(=O)N[C@H](Cc1ccccc1)C(=O)C(=O)NCc1ccccn1 [Compound 296, N—((R)-1-(((R)-3,4-dioxo-1-phenyl-4-((pyridin-2-ylmethyl)amino)butan-2-yl)amino)-1-oxopropan-2-yl)-4,4-difluoropiperidin-1-formamide] | 14.8 ± 0.1 nM | – | 16.3 ± 2.68 L/kg | 1040 ± 162 ng·h/mL | 1020 ± 156 ng·h/mL | 1400 ± 22.9 ng/mL | 1.17 ± 0.44 h | 0.08 h | 4.65 ± 3.87 mL/min/kg | 3.55 ± 3.39 h | 5190 ± 1010 ng·h/mL | 5180 ± 1010 ng·h/mL | 1040 ± 209 ng/mL | 4.43 ± 0.87 h | 0.25 h | 50.6 ± 9.84% | 2.8 ± 0.09 h | – | – | –
9 | O=C(CNC(=O)C1CCC(F)(F)CC1)N[C@H](Cc1ccccc1)C(=O)C(=O)NCc1ccccn1 [Compound 155] | 14.1 ± 0.1 nM | 281 µM | 3.29 ± 0.42 L/kg | 5120 ± 628 ng·h/mL | 5100 ± 615 ng·h/mL | 1570 ± 7.88 ng/mL | 3.99 ± 0.42 h | 0.08 h | 0.88 ± 0.1 mL/min/kg | 3.12 ± 0.35 h | 12400 ± 2230 ng·h/mL | 12300 ± 2270 ng·h/mL | 1150 ± 289 ng/mL | 5.98 ± 0.36 h | 0.33 ± 0.14 h | – | 3.75 ± 0.62 h | – | – | –
10 | C[C@@H](NC(=O)C1CCC(F)(F)CC1)C(=O)N[C@H](Cc1ccco1)C(=O)C(=O)NCc1ccccn1 [Compound 362] | 34 ± 0.6 nM | > 500 µM | – | – | – | – | – | – | – | – | – | – | – | – | – | – | – | > 500 µM | > 500 µM | 0.561 h
11 | C[C@@H](NC(=O)C1CCCC(F)(F)C1)C(=O)N[C@H](Cc1ccccc1)C(=O)C(=O)NCc1nccs1 (some centres unmarked) [Compound 375] | 13.8 ± 1.2 nM | > 500 µM | – | – | – | – | – | – | – | – | – | – | – | – | – | – | – | 325 µM | 384 µM | –
12 | CC(C)(NC(=O)C1CCC(F)(F)CC1)C(=O)N[C@H](Cc1ccccc1)C(=O)C(=O)NCc1ccccn1 [Compound 172] | 14.9 ± 0.7 nM | 341 µM | – | – | – | – | – | – | – | – | – | – | – | – | – | – | – | – | – | –
